This note sets out measurements from paper PMC5218480 (PLoS ONE, 2017).

This assay relates to MV-4-11 cells. The assay is described as follows: Gene expression microarray analysis (Affymetrix PrimeView) and GSEA. The format is cell-based, human. More on the design: RFU PODN (11730768_x_at) / Fold change /veh PODN (11730768_x_at) / RFU LINC00158 (11744669_a_at) / Fold change /veh LINC00158 (11744669_a_at) / RFU DUSP10 (11751237_a_at) / Fold change /veh DUSP10 (11751237_a_at) / RFU ID3 (11757404_x_at) / Fold change /veh ID3 (11757404_x_at) / RFU PLEKHG5 (11737974_s_at) / Fold change /veh PLEKHG5 (11737974_s_at) / RFU LRRC4B (11730491_at) / Fold change /veh LRRC4B (11730491_at) / RFU GIMAP4 (11747438_a_at) / Fold change /veh GIMAP4 (11747438_a_at) / RFU KRT8 (11758183_x_at) / Fold change /veh KRT8 (11758183_x_at) / RFU CNN1 (11734310_a_at) / Fold change /veh CNN1 (11734310_a_at) / RFU VPS37D (11726825_at) / Fold change /veh VPS37D (11726825_at) / RFU C10orf10 (11716522_x_at) / Fold change /veh C10orf10 (11716522_x_at) / RFU KIR2DL2 /// KIR2DL4 /// KIR2DL5A /// KIR2DL5B /// KIR2DS1 /// KIR2DS2 /// KIR2DS3 /// KIR2DS4 /// KIR3DL3 /// KIR3DL3 /// KIR3DS1 (11738374_at) / Fold change /veh KIR2DL2 /// KIR2DL4 /// KIR2DL5A /// KIR2DL5B /// KIR2DS1 /// KIR2DS2 /// KIR2DS3 /// KIR2DS4 /// KIR3DL3 /// KIR3DL3 /// KIR3DS1 (11738374_at) / RFU C1QL1 (11718748_at) / Fold change /veh C1QL1 (11718748_at) / RFU TMPRSS4 (11747572_a_at) / Fold change /veh TMPRSS4 (11747572_a_at) / RFU HAMP (11756126_x_at) / Fold change /veh HAMP (11756126_x_at) / RFU RNFT2 (11725882_a_at) / Fold change /veh RNFT2 (11725882_a_at) / RFU NR4A2 (11747474_a_at) / Fold change /veh NR4A2 (11747474_a_at) / RFU ABCC12 (11746883_a_at) / Fold change /veh ABCC12 (11746883_a_at) / RFU TMEM136 (11760407_x_at) / Fold change /veh TMEM136 (11760407_x_at) / RFU CLDN22 /// WWC2 (11732394_at) / Fold change /veh CLDN22 /// WWC2 (11732394_at) / RFU HLA-DPB1 (11760878_x_at) / Fold change /veh HLA-DPB1 (11760878_x_at) / RFU SPINT1 (11716480_a_at) / Fold change /veh SPINT1 (11716480_a_at) / RFU GAP43 (11754022_s_at) / Fold change /veh GAP43 (11754022_s_at) / RFU A4GNT (11735810_at) / Fold change /veh A4GNT (11735810_at) / RFU PRB3 (11715151_x_at) / Fold change /veh PRB3 (11715151_x_at) / RFU TUBB4B (11761932_at) / Fold change /veh TUBB4B (11761932_at) / RFU CAPN14 (11732068_a_at) / Fold change /veh CAPN14 (11732068_a_at) / RFU TMCC2 (11721928_a_at) / Fold change /veh TMCC2 (11721928_a_at) / RFU IRGQ (11745062_a_at) / Fold change /veh IRGQ (11745062_a_at) / RFU FAM174B (11720279_a_at) / Fold change /veh FAM174B (11720279_a_at) / RFU TMPRSS4 (11748680_a_at) / Fold change /veh TMPRSS4 (11748680_a_at) / RFU FAM212B (11763350_a_at) / Fold change /veh FAM212B (11763350_a_at) / RFU PLEKHG5 (11743358_a_at) / Fold change /veh PLEKHG5 (11743358_a_at) / RFU ZSCAN30 (11745921_a_at) / Fold change /veh ZSCAN30 (11745921_a_at) / RFU CMKLR1 (11741424_a_at) / Fold change /veh CMKLR1 (11741424_a_at) / RFU LOC101060620 /// MAPK8IP1 (11723275_at) / Fold change /veh LOC101060620 /// MAPK8IP1 (11723275_at) / RFU SPTSSB (11747773_x_at) / Fold change /veh SPTSSB (11747773_x_at) / RFU PRSS12 (11739890_at) / Fold change /veh PRSS12 (11739890_at) / RFU BIN1 (11741810_x_at) / Fold change /veh BIN1 (11741810_x_at) / RFU WNT11 (11732464_a_at) / Fold change /veh WNT11 (11732464_a_at) / RFU C10orf10 (11716521_a_at) / Fold change /veh C10orf10 (11716521_a_at) / RFU C5orf56 (11738089_at) / Fold change /veh C5orf56 (11738089_at) / RFU CYB561 (11721691_x_at) / Fold change /veh CYB561 (11721691_x_at) / RFU ANKRD19P (11752326_a_at) / Fold change /veh ANKRD19P (11752326_a_at) / RFU OR2T12 /// OR2T33 /// OR2T8 (11738714_s_at) / Fold change /veh OR2T12 /// OR2T33 /// OR2T8 (11738714_s_at) / RFU VCAN (11748164_a_at) / Fold change /veh VCAN (11748164_a_at) / RFU JSRP1 (11732532_at) / Fold change /veh JSRP1 (11732532_at) / RFU KRTAP10-11 (11738290_x_at) / Fold change /veh KRTAP10-11 (11738290_x_at) / RFU MYO3A (11730013_a_at) / Fold change /veh MYO3A (11730013_a_at) / RFU EBF3 (11725865_a_at) / Fold change /veh EBF3 (11725865_a_at) / RFU CAMK2N1 (11719241_x_at) / Fold change /veh CAMK2N1 (11719241_x_at) / RFU C5orf56 (11738088_a_at) / Fold change /veh C5orf56 (11738088_a_at) / RFU OLFML3 (11715873_a_at) / Fold change /veh OLFML3 (11715873_a_at) / RFU LOC100653217 /// NTM (11731650_a_at) / Fold change /veh LOC100653217 /// NTM (11731650_a_at) / RFU MAPK11 (11762145_a_at) / Fold change /veh MAPK11 (11762145_a_at) / RFU FIZ1 (11724087_x_at) / Fold change /veh FIZ1 (11724087_x_at) / RFU OASL (11726364_x_at) / Fold change /veh OASL (11726364_x_at) / RFU SOX15 (11748057_x_at) / Fold change /veh SOX15 (11748057_x_at) / RFU CD79A (11719716_a_at) / Fold change /veh CD79A (11719716_a_at) / RFU HIST1H1D (11736915_at) / Fold change /veh HIST1H1D (11736915_at) / RFU CASKIN2 (11723855_a_at) / Fold change /veh CASKIN2 (11723855_a_at) / RFU LOC730098 (11760151_x_at) / Fold change /veh LOC730098 (11760151_x_at) / RFU OR4N2 (11742367_at) / Fold change /veh OR4N2 (11742367_at) / RFU PRRT2 (11749266_a_at) / Fold change /veh PRRT2 (11749266_a_at) / RFU SNX32 (11753110_a_at) / Fold change /veh SNX32 (11753110_a_at) / RFU CDHR5 (11726645_a_at) / Fold change /veh CDHR5 (11726645_a_at) / RFU RCAN1 (11760418_a_at) / Fold change /veh RCAN1 (11760418_a_at) / RFU FAM167A (11723789_a_at) / Fold change /veh FAM167A (11723789_a_at) / RFU FAM26E (11764081_at) / Fold change /veh FAM26E (11764081_at) / RFU ISYNA1 (11749810_s_at) / Fold change /veh ISYNA1 (11749810_s_at) / RFU ACY1 (11761880_at) / Fold change /veh ACY1 (11761880_at) / RFU 11764098_at / Fold change /veh 11764098_at / RFU SAMD14 (11745864_x_at) / Fold change /veh SAMD14 (11745864_x_at) / RFU NPB (11741838_a_at) / Fold change /veh NPB (11741838_a_at) / RFU TMPRSS6 (11731388_a_at) / Fold change /veh TMPRSS6 (11731388_a_at) / RFU KRTAP10-2 (11738614_at) / Fold change /veh KRTAP10-2 (11738614_at) / RFU ARHGAP8 /// PRR5-ARHGAP8 (11727945_x_at) / Fold change /veh ARHGAP8 /// PRR5-ARHGAP8 (11727945_x_at) / RFU KRTAP5-7 /// NADSYN1 (11734609_at) / Fold change /veh KRTAP5-7 /// NADSYN1 (11734609_at) / RFU RASL12 (11751679_a_at) / Fold change /veh RASL12 (11751679_a_at) / RFU CDKN2B (11736163_a_at) / Fold change /veh CDKN2B (11736163_a_at) / RFU PRF1 (11729649_at) / Fold change /veh PRF1 (11729649_at) / RFU, ZNF638 /// ZNF638-IT1 / Fold change vs veh, ZNF638 /// ZNF638-IT1 / RFU, PANK3 / Fold change vs veh, PANK3 / RFU, SH3YL1 / Fold change vs veh, SH3YL1 / RFU, ZEB2 / Fold change vs veh, ZEB2 / RFU, NRIP1 / Fold change vs veh, NRIP1 / RFU, PTTG1IP / Fold change vs veh, PTTG1IP / RFU, CAPN2 / Fold change vs veh, CAPN2 / RFU, MED14 / Fold change vs veh, MED14 / RFU, SNORA58 / Fold change vs veh, SNORA58 / RFU, C1orf63 / Fold change vs veh, C1orf63 / RFU, LRRFIP1 / Fold change vs veh, LRRFIP1 / RFU, NDUFAF7 / Fold change vs veh, NDUFAF7 / RFU, SLC12A2 / Fold change vs veh, SLC12A2 / RFU, IBTK / Fold change vs veh, IBTK / RFU, ESF1 / Fold change vs veh, ESF1 / Fold change vs veh, TMEM50B / RFU, TAOK1 / Fold change vs veh, TAOK1 / RFU, ACBD3 / Fold change vs veh, ACBD3 / RFU, TMA16 / Fold change vs veh, TMA16 / RFU, RWDD3 / Fold change vs veh, RWDD3 / RFU, BCAT1 / Fold change vs veh, BCAT1 / RFU, EDEM3 / Fold change vs veh, EDEM3 / RFU, TMEM33 / Fold change vs veh, TMEM33 / RFU, WDR75 / Fold change vs veh, WDR75 / RFU, AHCTF1 / Fold change vs veh, AHCTF1 / RFU, TFRC / Fold change vs veh, TFRC / RFU, ZDHHC17 / Fold change vs veh, ZDHHC17 / RFU, NOM1 / Fold change vs veh, NOM1 / RFU, ARL8B / Fold change vs veh, ARL8B / RFU, ZBTB11 / Fold change vs veh, ZBTB11 / RFU, TAMM41 / Fold change vs veh, TAMM41 / RFU, KIAA1704 /// LOC100996395 / Fold change vs veh, KIAA1704 /// LOC100996395 / RFU, ING1 / Fold change vs veh, ING1 / RFU, TRMT61B / Fold change vs veh, TRMT61B / RFU, FUBP3 / Fold change vs veh, FUBP3 / RFU, TP53 / Fold change vs veh, TP53 / RFU, TNKS2 / Fold change vs veh, TNKS2 / RFU, ZFP14 / Fold change vs veh, ZFP14 / RFU, ACTR2 / Fold change vs veh, ACTR2 / RFU, PPP3R1 / Fold change vs veh, PPP3R1 / RFU, PIK3R1 / Fold change vs veh, PIK3R1 / RFU, HNRNPA1 / Fold change vs veh, HNRNPA1 / RFU, RNF170 / Fold change vs veh, RNF170 / RFU, ZNF28 / Fold change vs veh, ZNF28 / RFU, RNGTT / Fold change vs veh, RNGTT / RFU, OGT / Fold change vs veh, OGT / RFU, BRD1 / Fold change vs veh, BRD1 / RFU, MARS / Fold change vs veh, MARS / RFU, ZNF655 / Fold change vs veh, ZNF655 / RFU, FAHD1 / Fold change vs veh, FAHD1 / RFU, BDP1 / Fold change vs veh, BDP1 / RFU, LRRCC1 / Fold change vs veh, LRRCC1 / RFU, ARID1A / Fold change vs veh, ARID1A / RFU, ZNF146 / Fold change vs veh, ZNF146 / RFU, ZNF330 / Fold change vs veh, ZNF330 / RFU, GPN3 / Fold change vs veh, GPN3 / RFU, C9orf123 / Fold change vs veh, C9orf123 / RFU, N4BP2L2 / Fold change vs veh, N4BP2L2 / RFU, ARFIP1 / Fold change vs veh, ARFIP1 / RFU, FAM179B / Fold change vs veh, FAM179B / RFU, BCL10 / Fold change vs veh, BCL10 / RFU, UHRF1BP1L / Fold change vs veh, UHRF1BP1L / RFU, BET1 / Fold change vs veh, BET1 / RFU, CNOT2 / Fold change vs veh, CNOT2 / RFU, ZNF268 / Fold change vs veh, ZNF268 / Fold change vs veh, ZNF507 / RFU, DGCR2 / Fold change vs veh, DGCR2 / RFU, WDSUB1 / Fold change vs veh, WDSUB1 / Fold change vs veh, HSP90B1 /// MIR3652 / RFU, ADSS / Fold change vs veh, ADSS / RFU, GK / Fold change vs veh, GK / RFU, ZNF148 / Fold change vs veh, ZNF148 / RFU, TAF9 / Fold change vs veh, TAF9 / RFU, SLC1A5 / Fold change vs veh, SLC1A5 / RFU, SLMO2 / Fold change vs veh, SLMO2 / RFU, ABCC4 / Fold change vs veh, ABCC4 / RFU, LOC101060439 /// RAP1B / Fold change vs veh, LOC101060439 /// RAP1B / RFU, RFX7 / Fold change vs veh, RFX7 / RFU, GTPBP10 / Fold change vs veh, GTPBP10 / RFU, CNEP1R1 / Fold change vs veh, CNEP1R1 / RFU, BIVM-ERCC5 /// ERCC5 / Fold change vs veh, BIVM-ERCC5 /// ERCC5 / RFU, ILF3 / Fold change vs veh, ILF3 / RFU 11762660_at / Fold change /veh 11762660_at / RFU VCAN (11757783_s_at) / Fold change /veh VCAN (11757783_s_at) / RFU DDX43 (11728927_at) / Fold change /veh DDX43 (11728927_at) / RFU KRT8 (11758188_x_at) / Fold change /veh KRT8 (11758188_x_at) / RFU NKD1 (11759106_at) / Fold change /veh NKD1 (11759106_at) / RFU SRD5A1 (11742802_a_at) / Fold change /veh SRD5A1 (11742802_a_at) / RFU TPSAB1 /// TPSB2 (11721975_s_at) / Fold change /veh TPSAB1 /// TPSB2 (11721975_s_at) / RFU GSTM3 (11746129_a_at) / Fold change /veh GSTM3 (11746129_a_at) / RFU IL23R (11737362_x_at) / Fold change /veh IL23R (11737362_x_at) / RFU TMEM51 (11727254_a_at) / Fold change /veh TMEM51 (11727254_a_at) / RFU PIWIL2 (11732686_x_at) / Fold change /veh PIWIL2 (11732686_x_at) / RFU ORM1 (11744905_x_at) / Fold change /veh ORM1 (11744905_x_at) / RFU CCDC152 (11743942_at) / Fold change /veh CCDC152 (11743942_at) / RFU ECM1 (11717891_a_at) / Fold change /veh ECM1 (11717891_a_at) / RFU IL23R (11748794_a_at) / Fold change /veh IL23R (11748794_a_at) / RFU TNFAIP8L3 (11732012_x_at) / Fold change /veh TNFAIP8L3 (11732012_x_at) / RFU MBOAT4 (11741988_at) / Fold change /veh MBOAT4 (11741988_at) / RFU 11764193_at / Fold change /veh 11764193_at / RFU TMEM53 (11763286_at) / Fold change /veh TMEM53 (11763286_at) / RFU MAGEB2 (11727129_at) / Fold change /veh MAGEB2 (11727129_at) / RFU TMEM200A (11744735_a_at) / Fold change /veh TMEM200A (11744735_a_at) / RFU CCDC152 (11751479_a_at) / Fold change /veh CCDC152 (11751479_a_at) / RFU FAM211A (11726209_a_at) / Fold change /veh FAM211A (11726209_a_at) / RFU RGS16 (11746705_a_at) / Fold change /veh RGS16 (11746705_a_at) / RFU VCAN (11755009_s_at) / Fold change /veh VCAN (11755009_s_at) / RFU RHOB (11743442_s_at) / Fold change /veh RHOB (11743442_s_at) / RFU RGS16 (11720943_a_at) / Fold change /veh RGS16 (11720943_a_at) / RFU RGS16 (11720944_at) / Fold change /veh RGS16 (11720944_at) / RFU, VPS4B / Fold change vs veh, VPS4B / RFU, CREB1 / Fold change vs veh, CREB1 / RFU, DNAJC13 / Fold change vs veh, DNAJC13 / RFU, GNAQ / Fold change vs veh, GNAQ / RFU, CDK5R1 / Fold change vs veh, CDK5R1 / RFU, ZRANB3 / Fold change vs veh, ZRANB3 / RFU, CUL4A / Fold change vs veh, CUL4A / RFU, CCNY / Fold change vs veh, CCNY / RFU, UFL1 / Fold change vs veh, UFL1 / RFU, COG3 / Fold change vs veh, COG3 / RFU, DIAPH2 / Fold change vs veh, DIAPH2 / RFU, SKA2 / Fold change vs veh, SKA2 / RFU, AFF3 / Fold change vs veh, AFF3 / RFU, LMF1 / Fold change vs veh, LMF1 / RFU, IPO11 / Fold change vs veh, IPO11 / RFU, DFFB / Fold change vs veh, DFFB / RFU, FOXP1 / Fold change vs veh, FOXP1 / RFU, CARD8 / Fold change vs veh, CARD8 / RFU, STRN3 / Fold change vs veh, STRN3 / RFU, ADK / Fold change vs veh, ADK / RFU, RASSF2 / Fold change vs veh, RASSF2 / RFU, WIPF1 / Fold change vs veh, WIPF1 / RFU, LARP1B / Fold change vs veh, LARP1B / RFU, RASA1 / Fold change vs veh, RASA1 / RFU, RB1 / Fold change vs veh, RB1 / RFU, PPFIA1 / Fold change vs veh, PPFIA1 / RFU, MAT2A / Fold change vs veh, MAT2A / RFU, CCT5 / Fold change vs veh, CCT5 / RFU, WDR92 / Fold change vs veh, WDR92 / RFU, CUX1 / Fold change vs veh, CUX1 / RFU, TTC7A / Fold change vs veh, TTC7A / RFU, TMEM135 / Fold change vs veh, TMEM135 / RFU, DEPTOR / Fold change vs veh, DEPTOR / RFU, CPM / Fold change vs veh, CPM / RFU, DNAJB6 / Fold change vs veh, DNAJB6 / RFU, CACNA2D3 / Fold change vs veh, CACNA2D3 / RFU, DTX4 / Fold change vs veh, DTX4 / RFU, TFCP2 / Fold change vs veh, TFCP2 / RFU, GMCL1 /// GMCL1P1 / Fold change vs veh, GMCL1 /// GMCL1P1 / RFU, AEBP2 / Fold change vs veh, AEBP2 / RFU, SNHG1 /// SNORD22 /// SNORD25 /// SNORD26 /// SNORD27 /// SNORD28 /// SNORD29 /// SNORD31 / Fold change vs veh, SNHG1 /// SNORD22 /// SNORD25 /// SNORD26 /// SNORD27 /// SNORD28 /// SNORD29 /// SNORD31 / Fold change (Aza/veh), C12orf56 (ProbeSet 11735607_a_at) / Fold change (ACY-1035/veh), C12orf56 (ProbeSet 11735607_a_at) / Fold change (Aza/veh), FGFR1OP (ProbeSet 11751329_s_at) / Fold change (ACY-1035/veh), FGFR1OP (ProbeSet 11751329_s_at) / Fold change (Aza/veh), VPS36 (ProbeSet 11739960_a_at) / Fold change (ACY-1035/veh), VPS36 (ProbeSet 11739960_a_at) / RFU SYPL1 (11715823_x_at) / Fold change /veh SYPL1 (11715823_x_at) / RFU IGFBP7 (11715501_s_at) / Fold change /veh IGFBP7 (11715501_s_at) / RFU REEP3 (11722064_at) / Fold change /veh REEP3 (11722064_at) / RFU IGLL1 (11728026_x_at) / Fold change /veh IGLL1 (11728026_x_at): dose or concentration left out as unconfirmed. The conditions noted are these: ProbeSet 11755436_x_at; LIST B.

`Nc1ncn([C@@H]2O[C@H](CO)[C@@H](O)[C@H]2O)c(=O)n1` [azacitidine]: the “RFU, ARID1A” value was 63.57 RFU.
